Results published in ChEMBL document CHEMBL1151757, “Synthesis, radiosynthesis, and biological evaluation of fluorine-18-labeled 2beta-carbo(fluoroalkoxy)-3beta-(3'-((Z)-2-haloethenyl)phenyl)nortropanes: candidate radioligands for in vivo imaging of the serotonin transporter with positron emission tomography” (J Med Chem, 2008).

Experiments:
Pons [1] = assay: Drug uptake in anesthetized cynomolgus monkey brain pons after 165 mins postinjection; assay type: ADME, organism-based, Macaca fascicularis; conditions: in vivo, 2.75 h
Pons [2] = assay: Drug uptake in anesthetized cynomolgus monkey brain pons after 175 mins postinjection; assay type: ADME, organism-based, Macaca fascicularis; conditions: in vivo
Medulla [3] = assay: Drug uptake in anesthetized cynomolgus monkey brain medulla after 0.5 mins postinjection; assay type: ADME, organism-based, Macaca fascicularis; conditions: in vivo
Medulla [4] = assay: Drug uptake in anesthetized cynomolgus monkey brain medulla after 4.5 mins postinjection; assay type: ADME, organism-based, Macaca fascicularis; conditions: in vivo, 0.075 h
Medulla [5] = assay: Drug uptake in anesthetized cynomolgus monkey brain medulla after 9.5 mins postinjection; assay type: ADME, organism-based, Macaca fascicularis; conditions: in vivo
Medulla [6] = assay: Drug uptake in anesthetized cynomolgus monkey brain medulla after 105 mins postinjection; assay type: ADME, organism-based, Macaca fascicularis; conditions: in vivo, 1.75 h
[7] = Ratio of drug uptake in putamen to cerebellum in anesthetized cynomolgus monkey after 3.5 mins postinjection; assay type: ADME, organism-based, Macaca fascicularis; conditions: in vivo
[8] = Ratio of drug uptake in putamen to cerebellum in anesthetized cynomolgus monkey after 6.5 mins postinjection; assay type: ADME, organism-based, Macaca fascicularis; conditions: in vivo
[9] = Ratio of drug uptake in putamen to cerebellum in anesthetized cynomolgus monkey after 9.5 mins postinjection; assay type: ADME, organism-based, Macaca fascicularis; conditions: in vivo
[10] = Ratio of drug uptake in putamen to cerebellum in anesthetized cynomolgus monkey after 35 mins postinjection; assay type: ADME, organism-based, Macaca fascicularis; conditions: in vivo
Medulla [11] = assay: Drug uptake in anesthetized cynomolgus monkey brain medulla after 125 mins postinjection; assay type: ADME, organism-based, Macaca fascicularis; conditions: in vivo
Medulla [12] = assay: Drug uptake in anesthetized cynomolgus monkey brain medulla after 235 mins postinjection; assay type: ADME, organism-based, Macaca fascicularis; conditions: in vivo
[13] = Drug uptake in anesthetized cynomolgus monkey brain cerebellum after 0.5 mins postinjection; assay type: ADME, organism-based, Macaca fascicularis; conditions: in vivo
[14] = Drug uptake in anesthetized cynomolgus monkey brain cerebellum after 35 mins postinjection; assay type: ADME, organism-based, Macaca fascicularis; conditions: in vivo
[15] = Drug uptake in anesthetized cynomolgus monkey brain cerebellum after 45 mins postinjection; assay type: ADME, organism-based, Macaca fascicularis; conditions: in vivo, 0.75 h
[16] = Ratio of drug uptake in putamen to cerebellum in anesthetized cynomolgus monkey after 215 mins postinjection; assay type: ADME, organism-based, Macaca fascicularis; conditions: in vivo
[17] = Ratio of drug uptake in thalamus to cerebellum in anesthetized cynomolgus monkey after 155 mins postinjection; assay type: ADME, organism-based, Macaca fascicularis; conditions: in vivo
Caudate [18] = assay: Drug uptake in anesthetized cynomolgus monkey brain caudate after 2.5 mins postinjection; assay type: ADME, organism-based, Macaca fascicularis, Caudate nucleus; conditions: in vivo
Caudate [19] = assay: Drug uptake in anesthetized cynomolgus monkey brain caudate after 3.5 mins postinjection; assay type: ADME, organism-based, Macaca fascicularis, Caudate nucleus; conditions: in vivo
Caudate [20] = assay: Drug uptake in anesthetized cynomolgus monkey brain caudate after 22.5 mins postinjection; assay type: ADME, organism-based, Macaca fascicularis, Caudate nucleus; conditions: in vivo, 0.375 h
Caudate [21] = assay: Drug uptake in anesthetized cynomolgus monkey brain caudate after 55 mins postinjection; assay type: ADME, organism-based, Macaca fascicularis, Caudate nucleus; conditions: in vivo
Caudate [22] = assay: Drug uptake in anesthetized cynomolgus monkey brain caudate after 95 mins postinjection; assay type: ADME, organism-based, Macaca fascicularis, Caudate nucleus; conditions: in vivo
Caudate [23] = assay: Drug uptake in anesthetized cynomolgus monkey brain caudate after 235 mins postinjection; assay type: ADME, organism-based, Macaca fascicularis, Caudate nucleus; conditions: in vivo
Thalamus [24] = assay: Drug uptake in anesthetized cynomolgus monkey brain thalamus after 3.5 mins postinjection; assay type: ADME, organism-based, Macaca fascicularis; parameters: unit not given here; conditions: in vivo
Putamen = assay: Drug uptake in anesthetized cynomolgus monkey brain putamen after 9.5 mins postinjection; assay type: ADME, organism-based, Macaca fascicularis; parameters: unit not given here; conditions: in vivo
Thalamus [25] = assay: Drug uptake in anesthetized cynomolgus monkey brain thalamus after 55 mins postinjection; assay type: ADME, organism-based, Macaca fascicularis; parameters: unit not given here; conditions: in vivo
Thalamus [26] = assay: Drug uptake in anesthetized cynomolgus monkey brain thalamus after 65 mins postinjection; assay type: ADME, organism-based, Macaca fascicularis; parameters: unit not given here; conditions: in vivo
Midbrain [27] = assay: Drug uptake in anesthetized cynomolgus monkey brain midbrain after 3.5 mins postinjection; assay type: ADME, organism-based, Macaca fascicularis; parameters: unit not given here; conditions: in vivo
Midbrain [28] = assay: Drug uptake in anesthetized cynomolgus monkey brain midbrain after 22.5 mins postinjection; assay type: ADME, organism-based, Macaca fascicularis; parameters: unit not given here; conditions: in vivo, 0.375 h
Midbrain [29] = assay: Drug uptake in anesthetized cynomolgus monkey brain midbrain after 27.5 mins postinjection; assay type: ADME, organism-based, Macaca fascicularis; parameters: unit not given here; conditions: in vivo
Midbrain [30] = assay: Drug uptake in anesthetized cynomolgus monkey brain midbrain after 55 mins postinjection; assay type: ADME, organism-based, Macaca fascicularis; parameters: unit not given here; conditions: in vivo
Midbrain [31] = assay: Drug uptake in anesthetized cynomolgus monkey brain midbrain after 75 mins postinjection; assay type: ADME, organism-based, Macaca fascicularis; parameters: unit not given here; conditions: in vivo, 1.25 h
Midbrain [32] = assay: Drug uptake in anesthetized cynomolgus monkey brain midbrain after 85 mins postinjection; assay type: ADME, organism-based, Macaca fascicularis; parameters: unit not given here; conditions: in vivo
Midbrain [33] = assay: Drug uptake in anesthetized cynomolgus monkey brain midbrain after 125 mins postinjection; assay type: ADME, organism-based, Macaca fascicularis; parameters: unit not given here; conditions: in vivo

SMILES: O=C(OCCC[18F])C1C2CCC(CC1c1cccc(/C=C\I)c1)N2 (centres undefined)
- Drug uptake (Pons [1]): 3.73
- Drug uptake (Pons [2]): 3.41
- Drug uptake (Medulla [3]): 0.01
- Drug uptake (Medulla [4]): 2.58
- Drug uptake (Medulla [5]): 3.97
- Drug uptake (Medulla [6]): 4.34
- Ratio [7]: 0.8
- Ratio [8]: 0.8
- Ratio [9]: 0.9
- Ratio [10]: 1.1
- Drug uptake (Medulla [11]): 4.54
- Drug uptake (Medulla [12]): 3.15
- Drug uptake [13]: 0.01
- Drug uptake [14]: 4.74
- Drug uptake [15]: 4.48
- Ratio [16]: 1.5
- Ratio [17]: 1.6
- Drug uptake (Caudate [18]): 0.64
- Drug uptake (Caudate [19]): 1.15
- Drug uptake (Caudate [20]): 3.53
- Drug uptake (Caudate [21]): 4.09
- Drug uptake (Caudate [22]): 3.82
- Drug uptake (Caudate [23]): 2.41
- Drug uptake (Thalamus [24]): 1.44
- Drug uptake (Putamen): 3.75
- Drug uptake (Thalamus [25]): 4.89
- Drug uptake (Thalamus [26]): 4.79
- Drug uptake (Midbrain [27]): 1.74
- Drug uptake (Midbrain [28]): 4.55
- Drug uptake (Midbrain [29]): 5.04
- Drug uptake (Midbrain [30]): 4.98
- Drug uptake (Midbrain [31]): 5
- Drug uptake (Midbrain [32]): 4.92
- Drug uptake (Midbrain [33]): 4.58
